The values that follow come from PMC11311250 (Organic & biomolecular chemistry, 2023).

For series [1] the following is noted: amide bond, 12-membered ring.
Another series deals with P. aeruginosa K799. The experiment in a line: antibacterial microdilution growth inhibition. It is filed as cell-based, Pseudomonas aeruginosa.
For series [2] the following is noted: amide bond; 12-membered ring; T3P/DIEA; DMF; 45.0 °C.
[3] abbreviates: T3P/DIEA, DCE, 1.0 mM, 80.0 °C, 3 steps.
Setting [4] is: T3P/collidine, DCE, 1.0 mM, 80.0 °C, 3 steps.

Like-named read-outs stand apart in the source and are kept apart here.

In series [1] (setting [3]), “(3S,6S,9R,12S)-3,9-dibenzyl-1,6,7,12-tetramethyl-1,4,7,10-tetraazacyclododecane-2,5,8,11-tetraone (cyclo (L-N-Me-Ala–L-Phe–L-N-Me-Ala-D-Phe))” had a ring closure, isolated yield of 5%.
With ALAL, the ring closure, isolated yield in series [1] (setting [4]) was 11%.
As to “all-L cyclo(N-Me-Leu–Phe)2 (head to tail) [pseudoxylallemycin A]”, the growth inhibition entry with P. aeruginosa K799 is “failed to inhibit the growth”.
epi-pseudoxylallemycin gave a ring closure, isolated yield in series [1] (T3P/DIEA, DCM/DMF 9:1, 45.0 °C) of 26%.
In series [1] (setting [4]), epi-pseudoxylallemycin A showed a ring closure, isolated yield of 33%.
Consider pseudoxylallemycin A, for which, in series [2], the ring closure, yield after HPLC worked out at 24%. Besides, the ring closure, isolated yield in series [1] (setting [3]) was found to be 18.1%; in series [1] (T3P/DIEA, DMF, 1.0 mM, 45.0 °C, 3 steps), 11.7%; in series [1] (T3P/DIEA, DMF, 1.0 mM, 80.0 °C, 3 steps) it was 14.7%; in series [1] (T3P/DtBP, DCE, 1.0 mM, 80.0 °C, 3 steps), 19%; in series [1] (setting [4]), 36%; in series [1] (T3P/pyridine, DCE, 1.0 mM, 80.0 °C, 3 steps), 32%.
